From PubChem BioAssay AID248 (DTP/NCI, 2004) come the findings set out here.

This experiment concerns L1210 leukemia ip in BDF1 mice, survival T/C. Put plainly: NCI In Vivo Anticancer Drug Screen. Data for tumor model L1210 Leukemia (intraperitoneal) in B6D2F1 (BDF1) mice. Particulars: endpoint: mean survival time, higher = longer survival. In a few lines: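 In this screen, tumor-bearing mice given compound are compared to those given vehicle, and their survival values are reported as a treated-to-control quotient.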

[1] abbreviates: dose: 100.0 mg/kg/injection, schedule: Q01DX009 (ip), vehicle: Klucel (hydroxypropylcellulose) (HPC).
[2] abbreviates: dose: 200.0 mg/kg/injection, schedule: Q01DX009 (ip), vehicle: Klucel (hydroxypropylcellulose) (HPC).
The mark [3] stands for this setting: dose: 400.0 mg/kg/injection, schedule: Q01DX009 (ip), vehicle: Klucel (hydroxypropylcellulose) (HPC).

Values joined by “and” are separate entries in the source; they are usually repeats but may differ in a detail not shown here. Equal values may be shown once. Toxic doses and inconclusive results are not listed.

As for `O=C(O)c1ccccc1-c1ccccc1C(=O)Nc1ccc2c(c1)Cc1cc(F)ccc1-2`, the T/C is, setting by setting: (dose: 75.0 mg/kg/injection, schedule: Q01DX001 (ip), vehicle: carboxymethylcellulose (CMC)) 91 % of control; (dose: 150.0 mg/kg/injection, schedule: Q01DX001 (ip), vehicle: carboxymethylcellulose (CMC)) 98 % of control.

On to `COc1ccc2nccc(C=O)c2c1`, for which the T/C (dose: 50.0 mg/kg/injection, schedule: Q01DX001 (ip), vehicle: carboxymethylcellulose (CMC)) was 108 % of control; the T/C (dose: 100.0 mg/kg/injection, schedule: Q01DX001 (ip), vehicle: carboxymethylcellulose (CMC)) is 102 % of control; the T/C (dose: 100.0 mg/kg/injection, schedule: Q01DX009 (ip), vehicle: saline with Tween-80) is 101 % of control; the T/C (dose: 200.0 mg/kg/injection, schedule: Q01DX001 (ip), vehicle: carboxymethylcellulose (CMC)) is 102 % of control; the T/C (dose: 200.0 mg/kg/injection, schedule: Q01DX009 (ip), vehicle: saline with Tween-80) is 95 % of control; the T/C (dose: 200.0 mg/kg/injection, schedule: Q04DX003 (ip), vehicle: saline with Tween-80) is 101 % of control. Besides, the T/C runs as follows: (dose: 400.0 mg/kg/injection, schedule: Q01DX001 (ip), vehicle: carboxymethylcellulose (CMC)) 96 % of control; (dose: 400.0 mg/kg/injection, schedule: Q04DX003 (ip), vehicle: saline with Tween-80) 89 % of control.

For `NC(CSSc1ccccc1)=NCC12CC3CC(CC(C3)C1)C2`, the T/C (dose: 10.0 mg/kg/injection, schedule: Q01DX001 (ip), vehicle: carboxymethylcellulose (CMC)) is 96 % of control and the T/C (dose: 20.0 mg/kg/injection, schedule: Q01DX001 (ip), vehicle: carboxymethylcellulose (CMC)) was 98 % of control.

Consider `COc1ccc(/C=N/NC(=O)CNC(=O)c2ccc(Cl)c(Cl)c2)cc1`, for which, under “dose: 12.5 mg/kg/injection, schedule: Q01DX009 (ip), vehicle: saline with Tween-80”, the T/C is 104 % of control.

As for `CCCCOC(=O)c1ccc(NC(=O)Nc2ccc(F)c([N+](=O)[O-])c2)cc1`, the T/C under setting [1] was 98 % of control, the T/C under setting [2] was 95 % of control and the T/C under setting [3] is 101 % of control.

Regarding `O=c1[nH]c(=O)n(C2CC(O)C(CO)O2)cc1I` (stereo unspecified), the T/C (dose: 62.5 mg/kg/injection, schedule: Q#A X Z (ip), vehicle: other) was 119 % of control; the T/C (dose: 125.0 mg/kg/injection, schedule: Q01DX009 (ip), vehicle: saline) was 103 % of control and 113 % of control; the T/C (dose: 125.0 mg/kg/injection, schedule: Q01DX010 (ip), vehicle: saline) is 114 % of control and 117 % of control; the T/C (dose: 125.0 mg/kg/injection, schedule: Q03DX Z (ip), vehicle: other) was 119 % of control; the T/C (dose: 150.0 mg/kg/injection, schedule: Q01DX009 (ip), vehicle: carboxymethylcellulose (CMC)) is 167 % of control; the T/C (dose: 150.0 mg/kg/injection, schedule: Q01DX009 (ip), vehicle: saline) is 114 % of control. The T/C runs as follows: (dose: 178.0 mg/kg/injection, schedule: Q01DX Z (ip), vehicle: other) 124 % of control; (dose: 178.0 mg/kg/injection, schedule: Q01DX Z (ip), vehicle: saline) 112 % of control; (dose: 250.0 mg/kg/injection, schedule: Q01DX001 (ip), vehicle: other) 105 % of control and 108 % of control; (dose: 250.0 mg/kg/injection, schedule: Q01DX009 (ip), vehicle: saline) 111 % of control and 118 % of control; (dose: 250.0 mg/kg/injection, schedule: Q01DX010 (ip), vehicle: saline) 114 % of control; (dose: 250.0 mg/kg/injection, schedule: Q03DX Z (ip), vehicle: other) 104 % of control. Besides, the T/C by setting is: (dose: 250.0 mg/kg/injection, schedule: Q07DX Z (ip), vehicle: other) 110 % of control; (dose: 267.0 mg/kg/injection, schedule: Q01DX Z (ip), vehicle: other) 116 % of control; (dose: 267.0 mg/kg/injection, schedule: Q01DX Z (ip), vehicle: saline) 122 % of control; (dose: 300.0 mg/kg/injection, schedule: Q01DX005 (ip), vehicle: carboxymethylcellulose (CMC)) 151 % of control; (dose: 300.0 mg/kg/injection, schedule: Q01DX009 (ip), vehicle: saline) 121 % of control; (dose: 304.0 mg/kg/injection, schedule: Q## X024 (ip), vehicle: carboxymethylcellulose (CMC)) 150 % of control. Also, the T/C (dose: 400.0 mg/kg/injection, schedule: Q01DX Z (ip), vehicle: other) was 113 % of control; the T/C (dose: 500.0 mg/kg/injection, schedule: Q01DX001 (ip), vehicle: other) was 110 % of control and 113 % of control; the T/C (dose: 500.0 mg/kg/injection, schedule: Q01DX009 (ip), vehicle: saline) is 116 % of control and 120 % of control; the T/C (dose: 500.0 mg/kg/injection, schedule: Q01DX010 (ip), vehicle: saline) was 111 % of control and 122 % of control; the T/C (dose: 500.0 mg/kg/injection, schedule: Q03DX Z (ip), vehicle: other) was 116 % of control; the T/C (dose: 500.0 mg/kg/injection, schedule: Q07DX Z (ip), vehicle: other) is 113 % of control. Moreover, the T/C reads like this: (dose: 500.0 mg/kg/injection, schedule: Q#A X Z (ip), vehicle: other) 152 % of control; (dose: 600.0 mg/kg/injection, schedule: Q01DX005 (ip), vehicle: carboxymethylcellulose (CMC)) 107 % of control; (dose: 600.0 mg/kg/injection, schedule: Q01DX009 (ip), vehicle: carboxymethylcellulose (CMC)) 92 % of control; (dose: 600.0 mg/kg/injection, schedule: Q## X002 (ip), vehicle: carboxymethylcellulose (CMC)) 158 % of control; (dose: 600.0 mg/kg/injection, schedule: Q## X003 (ip), vehicle: carboxymethylcellulose (CMC)) 170 % of control; (dose: 600.0 mg/kg/injection, schedule: Q## X016 (ip), vehicle: carboxymethylcellulose (CMC)) 158 % of control. Further, the T/C is 182 % of control (dose: 600.0 mg/kg/injection, schedule: Q## X024 (ip), vehicle: carboxymethylcellulose (CMC)); 164 % of control (dose: 900.0 mg/kg/injection, schedule: Q01DX Z (ip), vehicle: saline); 110 % of control and 116 % of control (dose: 1000.0 mg/kg/injection, schedule: Q01DX001 (ip), vehicle: other); 111 % of control and 117 % of control (dose: 1000.0 mg/kg/injection, schedule: Q01DX009 (ip), vehicle: saline); 111 % of control and 124 % of control (dose: 1000.0 mg/kg/injection, schedule: Q01DX010 (ip), vehicle: saline); 117 % of control (dose: 1000.0 mg/kg/injection, schedule: Q03DX Z (ip), vehicle: other). The T/C by setting is: (dose: 1000.0 mg/kg/injection, schedule: Q07DX Z (ip), vehicle: other) 105 % of control; (dose: 1200.0 mg/kg/injection, schedule: Q01DX001 (ip), vehicle: carboxymethylcellulose (CMC)) 161 % of control; (dose: 1200.0 mg/kg/injection, schedule: Q## X002 (ip), vehicle: carboxymethylcellulose (CMC)) 187 % of control; (dose: 1200.0 mg/kg/injection, schedule: Q## X003 (ip), vehicle: carboxymethylcellulose (CMC)) 211 % of control; (dose: 1200.0 mg/kg/injection, schedule: Q## X008 (ip), vehicle: carboxymethylcellulose (CMC)) 157 % of control; (dose: 1200.0 mg/kg/injection, schedule: Q## X016 (ip), vehicle: carboxymethylcellulose (CMC)) 167 % of control. In addition, the T/C by setting is: (dose: 1200.0 mg/kg/injection, schedule: Q## X024 (ip), vehicle: carboxymethylcellulose (CMC)) 160 % of control; (dose: 2000.0 mg/kg/injection, schedule: Q01DX010 (ip), vehicle: saline) 119 % of control; (dose: 2400.0 mg/kg/injection, schedule: Q01DX001 (ip), vehicle: carboxymethylcellulose (CMC)) 175 % of control; (dose: 2400.0 mg/kg/injection, schedule: Q## X002 (ip), vehicle: carboxymethylcellulose (CMC)) 161 % of control; (dose: 2400.0 mg/kg/injection, schedule: Q## X003 (ip), vehicle: carboxymethylcellulose (CMC)) 101 % of control; (dose: 2400.0 mg/kg/injection, schedule: Q## X008 (ip), vehicle: carboxymethylcellulose (CMC)) 188 % of control. The T/C (dose: 2400.0 mg/kg/injection, schedule: Q## X016 (ip), vehicle: carboxymethylcellulose (CMC)) is 232 % of control.

Regarding `Cc1cccc(Cl)c1NC(=O)N(Cc1ccccc1)Cc1ccccc1`, the T/C runs as follows: under setting [1], 100 % of control; under setting [2], 105 % of control; under setting [3], 97 % of control.

For the molecule `CCC(=O)c1c(C)c(C)cc2ccccc12`, the T/C is 97 % of control (dose: 100.0 mg/kg/injection, schedule: Q01DX009 (ip), vehicle: other); 95 % of control (dose: 200.0 mg/kg/injection, schedule: Q01DX009 (ip), vehicle: other); 108 % of control (dose: 400.0 mg/kg/injection, schedule: Q01DX009 (ip), vehicle: other).
